Experimental data taken from ChEMBL document CHEMBL1201862, “PubChem BioAssay data set” (2004).
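Step 1: Grow cells in 96-well plates. Step 2: Expose to compound for 48 hours at 5 concentrations. Step 3: Interpolate endpoints linearly; if unreached, use highest concentration. At the GI50, growth is halved.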 Calls of active or inactive are those of the source. No stated cut-off is given here; in the data, active = GI50 up to about 1.1 µM and inactive = higher.

Assays:
Assay in all cases: inhibition of tumour cell growth, NCI panel, 48 h
OVCAR-5 = system: OVCAR-5
OVCAR-3 = system: OVCAR-3
SK-MEL-5 = system: SK-MEL-5
HL-60 = system: HL-60
NCI-H460 = system: NCI-H460
MDA-N = system: MDA-N
BT-549 = system: BT-549
SF-295 = system: SF-295
KM12 = system: KM12
ACHN = system: ACHN
MCF7 = system: MCF7
UO-31 = system: UO-31
SK-MEL-28 = system: SK-MEL-28
HOP-92 = system: HOP-92
K562 = system: K562
SN12C = system: SN12C
786-0 = system: 786-0
OVCAR-4 = system: OVCAR-4
MDA-MB-435 = system: MDA-MB-435
NCI/ADR-RES = system: NCI/ADR-RES

In the case of `Nc1nc(Cl)c(CO)c(NCC2(CO)CCC2)n1`, the GI50 (OVCAR-5) is reported as > 100 µM (inactive), the GI50 (OVCAR-3) is reported as > 100 µM (inactive) and the GI50 (SK-MEL-5) is reported as > 100 µM (inactive). The GI50 (HL-60) was > 100 µM (inactive), the GI50 (NCI-H460) was > 100 µM (inactive) and the GI50 (MDA-N) was > 100 µM (inactive). For the same compound, the GI50 (BT-549) was > 100 µM (inactive), the GI50 (SF-295) was > 100 µM (inactive) and the GI50 (KM12) was 75.7 µM (inactive). For the same compound, the GI50 (ACHN) was > 100 µM (inactive), the GI50 (MCF7) was > 100 µM (inactive) and the GI50 (UO-31) was > 100 µM (inactive). For the same compound, the GI50 (SK-MEL-28) was > 100 µM (inactive), the GI50 (HOP-92) was > 100 µM (inactive) and the GI50 (K562) was > 100 µM (inactive). The GI50 (SN12C) was > 100 µM (inactive), the GI50 (786-0) was > 100 µM (inactive) and the GI50 (OVCAR-4) was > 100 µM (inactive). The GI50 (MDA-MB-435) was > 100 µM (inactive) and the GI50 (NCI/ADR-RES) was > 100 µM (inactive).
For `C=CCOC(=O)/C(=C\c1ccc(OC)c(OC)c1)c1ccc(OC)c(OC)c1`, the GI50 (OVCAR-5) was > 100 µM (inactive), the GI50 (OVCAR-3) was > 100 µM (inactive) and the GI50 (SK-MEL-5) was 42.3 µM (inactive). For the same compound, the GI50 (HL-60) was 15.5 µM (inactive), the GI50 (NCI-H460) was 25.4 µM (inactive) and the GI50 (MDA-N) was 60.7 µM (inactive). For the same compound, the GI50 (BT-549) was > 100 µM (inactive), the GI50 (SF-295) was 52.1 µM (inactive) and the GI50 (KM12) was 42.4 µM (inactive). The GI50 (ACHN) was 56.2 µM (inactive), the GI50 (MCF7) was 47.2 µM (inactive) and the GI50 (UO-31) was 20.7 µM (inactive). The GI50 (SK-MEL-28) was 33.1 µM (inactive), the GI50 (HOP-92) was 21.8 µM (inactive) and the GI50 (K562) was 57.8 µM (inactive). The GI50 (SN12C) was > 100 µM (inactive), the GI50 (786-0) was 71.3 µM (inactive) and the GI50 (OVCAR-4) was > 10 µM (inactive). The GI50 (MDA-MB-435) was 56 µM (inactive) and the GI50 (NCI/ADR-RES) was 40.6 µM (inactive).
With `O=[N+]([O-])/C=C/c1cc2ccccc2[nH]1` the GI50 (OVCAR-5) was 19.5 µM (inactive), the GI50 (OVCAR-3) was 14.8 µM (inactive) and the GI50 (SK-MEL-5) was 14.7 µM (inactive). For the same compound, the GI50 (HL-60) was 4.33 µM (inactive), the GI50 (NCI-H460) was 14.6 µM (inactive) and the GI50 (MDA-N) was 3.24 µM (inactive). For the same compound, the GI50 (BT-549) was 15.6 µM (inactive), the GI50 (SF-295) was 19.5 µM (inactive) and the GI50 (KM12) was 12.2 µM (inactive). The GI50 (ACHN) was 17 µM (inactive), the GI50 (MCF7) was 4.03 µM (inactive) and the GI50 (UO-31) was 14.8 µM (inactive). The GI50 (SK-MEL-28) was 25.4 µM (inactive), the GI50 (HOP-92) was 19.8 µM (inactive) and the GI50 (K562) was 13.8 µM (inactive). The GI50 (SN12C) was 17.7 µM (inactive), the GI50 (786-0) was 14.6 µM (inactive) and the GI50 (OVCAR-4) was 14.1 µM (inactive). The GI50 (MDA-MB-435) was 2.59 µM (inactive) and the GI50 (NCI/ADR-RES) was 32.1 µM (inactive).
`CC(C)N(CCCNc1c2ccccc2nc2cccc([N+](=O)[O-])c12)C(C)C` was tested, and the GI50 (OVCAR-5) was < 0.0191 µM (active), the GI50 (OVCAR-3) was < 0.023 µM (active) and the GI50 (SK-MEL-5) was < 0.01 µM (active). For the same compound, the GI50 (HL-60) was < 0.018 µM (active), the GI50 (NCI-H460) was < 0.01 µM (active) and the GI50 (MDA-N) was 0.0131 µM (active). The GI50 (BT-549) was < 0.0196 µM (active), the GI50 (SF-295) was < 0.0152 µM (active) and the GI50 (KM12) was < 0.0188 µM (active). For the same compound, the GI50 (ACHN) was < 0.0126 µM (active), the GI50 (MCF7) was 0.0114 µM (active) and the GI50 (UO-31) was < 0.0224 µM (active). The GI50 (SK-MEL-28) was < 0.01 µM (active), the GI50 (HOP-92) was 0.014 µM (active) and the GI50 (K562) was 0.0195 µM (active). For the same compound, the GI50 (SN12C) was < 0.0165 µM (active), the GI50 (786-0) was < 0.0179 µM (active) and the GI50 (OVCAR-4) was 0.0246 µM (active). For the same compound, the GI50 (MDA-MB-435) was < 0.0125 µM (active) and the GI50 (NCI/ADR-RES) was 0.986 µM (active).
For `CC(C)(C)c1cc(C2=NN(c3ccccc3)C(c3ccccc3)C2)cc(C(C)(C)C)c1O` (stereo not given), the GI50 (OVCAR-5) was > 100 µM (inactive), the GI50 (OVCAR-3) was 54.8 µM (inactive) and the GI50 (SK-MEL-5) was > 100 µM (inactive). For the same compound, the GI50 (HL-60) was 12.1 µM (inactive), the GI50 (NCI-H460) was > 100 µM (inactive) and the GI50 (MDA-N) was > 100 µM (inactive). The GI50 (BT-549) was > 100 µM (inactive), the GI50 (SF-295) was > 100 µM (inactive) and the GI50 (KM12) was > 100 µM (inactive). For the same compound, the GI50 (ACHN) was > 100 µM (inactive), the GI50 (MCF7) was 93.5 µM (inactive) and the GI50 (UO-31) was > 100 µM (inactive). For the same compound, the GI50 (SK-MEL-28) was > 100 µM (inactive), the GI50 (HOP-92) was > 100 µM (inactive) and the GI50 (K562) was > 100 µM (inactive). The GI50 (SN12C) was > 100 µM (inactive), the GI50 (786-0) was > 100 µM (inactive) and the GI50 (OVCAR-4) was > 100 µM (inactive). The GI50 (MDA-MB-435) was > 100 µM (inactive) and the GI50 (NCI/ADR-RES) was > 100 µM (inactive).
